Experimental data from US11793779B2, “Hica for use in prophylaxis and/or treatment of a disease or condition involving degradation of cartilage and/or disruption of cartilage homeostasis and/or integrity” (Salarusta Oy, priority 2020, dated 2023).

Experiments:
Format in all cases: biochemical
[1] = biological target: T1, Human recombinant pure MMP-8 (Homo sapiens, UniProt P22894); test: MMP-8 mediated DEL-1 fragmentation (SDS-PAGE, silver stain); settings: for inhibition of MMP-8 mediated DEL-1 fragmentation: Study A, 4 μl of 10% isomer, overnight at 37° C., FIG. 3A
T1 construct: purchased Proteaimmun 30100702
T1 sequence (P22894 101-467): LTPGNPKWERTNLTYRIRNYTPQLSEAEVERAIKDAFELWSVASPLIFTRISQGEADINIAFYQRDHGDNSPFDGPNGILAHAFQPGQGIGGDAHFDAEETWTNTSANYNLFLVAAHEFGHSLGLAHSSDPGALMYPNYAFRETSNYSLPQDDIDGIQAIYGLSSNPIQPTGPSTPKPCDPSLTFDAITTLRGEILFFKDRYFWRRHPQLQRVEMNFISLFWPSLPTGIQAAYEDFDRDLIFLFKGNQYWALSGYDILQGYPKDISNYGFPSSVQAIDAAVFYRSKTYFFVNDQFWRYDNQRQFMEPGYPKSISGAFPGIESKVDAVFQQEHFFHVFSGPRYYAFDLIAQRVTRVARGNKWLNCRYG
Method: The degradation of DEL-1 by MMP-8 was determined similarly as described (DeCarlo 1994, Sorsa, Salo et al. 1997). Human recombinant pure MMP-8 (#30100702, Proteaimmun) was preincubated 1 hour at 37° C. with p-aminophenylmercuric acetate (APMA) and different HICA isomers (D-HICA, #CAS 20312-37-2, Santa Cruz Biotechnology; L-HICA, #219827 Sigma-Aldrich). After which DEL-1 was added as a substrate. That was let incubate overnight at +37° C. Analyzed on […] SDS-PAGE with Silver Stain Pierce®. α-hydroxy-isovaleric acid (HMB). Ilomastat (Ilo). As assay buffer 50 mM Tris-HCl-buffer (TNC): pH 7.5; 0.2 M NaCl; 1.0 mM CaCl2 (Tervahartiala, Ingman et al. 1995). Fragmentation of DEL-1 induced by MMP-8 treated with 1 mM APMA was regarded as 100%. (Sorsa, Salo et al. 1997).
Study A: • 1. 1.7 μl DEL-1 (0.2 μg/μl) • 2. 1 μl MMP-8 (0.1 μg/μl)+5 μl 2 mM APMA+4 μl TNC • 3. 1.7 μl DEL-1 (0.2 μg/μl)+1 μl MMP-8 (0.1 μg/μl)+5 μl 2 mM APMA+4 μl TNC • 4.,5. 1.7 μl DEL-1 (0.2 μg/μl)+1 μl MMP-8 (0.1 μg/μl)+5 μl 2 mM APMA+10% 4 μl D-HICA • 6.,7. 1.7 μl DEL-1 (0.2 μg/μl)+1 μl MMP-8 (0.1 μg/μl)+5 μl 2 mM APMA+10% 4 μl L-HICA • 8.,9. 1.7 μl DEL-1 (0.2 μg/μl)+1 μl MMP-8 (0.1 μg/μl)+5 μl 2 mM APMA+10% 4 μl D-HMB • 10.,11. 1.7 μl DEL-1 (0.2 μg/μl)+1 μl MMP-8 (0.1 μg/μl)+5 μl 2 mM APMA+10% 4 μl L-HMB • 12.,13. 1.7 μl DEL-1 (0.2 μg/μl)+1 μl MMP-8 (0.1 μg/μl)+5 μl 2 mM APMA+4 μl Ilo
Study B: • 1. 1.7 μl DEL-1 (0.2 μg/μl) • 2. 1 μl MMP-8 (0.1 μg/μl)+5 μl 2 mM APMA+4 μl TNC • 3.,4. 1.7 μl DEL-1 (0.2 μg/μl)+1 μl MMP-8 (0.1 μg/μl)+5 μl 2 mM APMA+4 μl TNC • 6.,7. 1.7 μl DEL-1 (0.2 μg/μl)+1 μl MMP-8 (0.1 μg/μl)+7 μl 1.4 mM APMA+2 μl 10% D-HICA • 8.,9.,10. 1.7 μl DEL-1 (0.2 μg/μl)+1 μl MMP-8 (0.1 μg/μl)+5 μl 2 mM APMA+4 μl 10% D-HICA • 11.,12.,13. 1.7 μl DEL-1 (0.2 μg/μl)+1 μl MMP-8 (0.1 μg/μl)+1 μl 10 mM APMA+8 μl 10% D-HICA • 14. 1.7 μl DEL-1 (0.2 μg/μl)+1 μl MMP-8 (0.1 μg/μl)+5 μl 2 mM APMA+4 μl Ilo

[2] = biological target: T2, recombinant human ADAMTS-5 (Homo sapiens, UniProt Q9UNA0); test: ADAMTS-5 mediated break down of aggrecan (SDS-PAGE, silver stain); settings: 10% racemic HICA, pH 7.4, incubation 2 d, FIG. 1 line 5
T2 construct: purchased Chemicon International Inc. CC1034
T2 sequence (Q9UNA0 262-930): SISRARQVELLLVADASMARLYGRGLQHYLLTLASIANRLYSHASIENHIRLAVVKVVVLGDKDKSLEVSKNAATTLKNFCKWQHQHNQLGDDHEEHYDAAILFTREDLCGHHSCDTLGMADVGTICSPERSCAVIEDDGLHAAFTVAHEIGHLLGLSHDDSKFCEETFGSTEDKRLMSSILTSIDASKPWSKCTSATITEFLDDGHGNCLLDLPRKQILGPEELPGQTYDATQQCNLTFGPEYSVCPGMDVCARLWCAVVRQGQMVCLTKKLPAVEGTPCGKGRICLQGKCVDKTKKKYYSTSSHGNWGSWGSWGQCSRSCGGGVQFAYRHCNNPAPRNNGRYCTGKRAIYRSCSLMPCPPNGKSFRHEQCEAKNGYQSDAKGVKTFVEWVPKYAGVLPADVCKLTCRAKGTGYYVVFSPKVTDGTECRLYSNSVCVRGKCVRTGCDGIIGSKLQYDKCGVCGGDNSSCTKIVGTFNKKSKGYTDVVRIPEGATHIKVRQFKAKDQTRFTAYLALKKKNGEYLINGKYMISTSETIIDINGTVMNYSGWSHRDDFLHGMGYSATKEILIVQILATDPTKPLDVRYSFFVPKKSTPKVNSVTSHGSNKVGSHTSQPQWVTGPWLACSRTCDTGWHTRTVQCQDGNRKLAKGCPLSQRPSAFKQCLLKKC
Method: (§1) As positive inhibitor controls Ilomastat (Ilo, CC1010, Millipore) and chlorhexidine (CHX, Corsodyl®, [2 mg/ml] (GlaxoSmithKline, Brøndby, Denmark) were used and 50 mM Tris-HCl-buffer (TNC): pH 7.5; 0.2 M NaCl; 1.0 mM CaCl2) was used as neutral assay buffer.
(§2) MMP-13 was preincubated 1 hour at 37° C. with p-aminophenylmercuric acetate (APMA, A9563, Sigma-Aldrich) to optimally activate (pro)MMP-13. As substrate, Aggrecan was added and then ADAMTS-5 or activated MMP-13 as catalytic/proteolytic enzyme and TNC, as neutral control, and 10% HICA, CHX or Ilo as protease/MMP-inhibitors let incubated together from 1 hour (h) to 2 days (d). The enzyme reactions terminated by boiling with modified Laemmli buffer. The samples were analysed by 8% SDS-PAGE and after electrophoresis the defragmentation of Aggrecan was visualised using Silver Stain Pierce®.
(§3) Sample with concentrations in lines: • 1. 0.25 μl molecular weight standards. Bio-Rad • 2. 4.2 μl Aggrecan (0.5 μg/μl) • 3. 4 μl ADAMTS-5 (0.1 μg/μl) • 4. 4.2 μl Aggrecan+4 μl ADAMTS-5+6 μl TNC-buffer. inc: 2d • 5. 4.2 μl Aggrecan+4 μl ADAMTS-5+6 μl 10% HICA. inc: 2d • 6. 4.2 μl Aggrecan+4 μl ADAMTS-5+6 μl CHX (2 mg/ml). inc: 2d • 7. 1 μl MMP-13 (0.2 μg/μl)+3 μl 2 mM APMA+6 μl TNC • 8. 4.2 μl Aggrecan+1 μl MMP-13 (0.2 μg/μl)+3 μl 2 mM APMA+6 μl TNC. inc: 1h • 9. 4.2 μl Aggrecan+1 μl MMP-13 (0.2 μg/μl)+3 μl 2 mM APMA+6 μl TNC. inc: 2d • 10. […]

[3] = biological target: T3, human Matrix metalloproteinase 13 (MMP-13) (Homo sapiens, UniProt P45452); test: MMP-13 mediated break down of aggrecan (SDS-PAGE, silver stain); settings: 10% racemic HICA, APMA-activated MMP-13, incubation 2 d, FIG. 1 line 11
T3 construct: purchased BioTeZ, Berlin-Buch, Berlin, Germany 30100802
Method: as §1, §2, §3

inhibition of MMP-8 mediated DEL-1 fragmentation [1] | dose dependence of inhibition of MMP-8 mediated DEL-1 fragmentation ([1]; Study B, 2, 4 and 8 μl of 10% D-HICA, FIG. 3B) | inhibition of break down of Aggrecan by ADAMTS-5 [2] | inhibition of break down of Aggrecan by MMP-13 [3] | SMILES
able to prevent fragmentation of DEL-1 | inhibit MMP-8 dose-dependently | – | – | CC(C)C[C@@H](O)C(=O)O [D-HICA]
able to prevent fragmentation of DEL-1 | – | – | – | CC(C)C[C@H](O)C(=O)O [L-HICA]
– | – | prevent enzyme activity | prevent enzyme activity | [H]/N=C(\N/C(=N/[H])NCCCCCCNC(=N)NC(=N)Nc1ccc(Cl)cc1)Nc1ccc(Cl)cc1 [chlorhexidine, reference compound]
